This assay relates to expression of luciferase (firefly luciferase mRNA) in liver. Kind of assay: In vivo luciferase imaging (IVIS) of liver after tail vein administration of Fluc mRNA/LNPs. The settings on record: 6 hours; for Average intensity (comparison with SM102 and MC3): N/P 7.5, tail vein, liver. Further details: species or system Balb/c mice. How it is done:
In order to achieve mRNA delivery at animal level, the inventors prepared mRNA/lipid nanoparticles using the method as follows: formulating each of the ionizable lipid compounds (YX8, YX17, YX31, YX27, YX28, YX35, YX29 or YX33) prepared in Example 1, cholesterol, DOPE and DMG-PEG2000 into a 10 mg/mL ethanol solution. Taking YX27 as an example, when preparing an mRNA/LNP complex in a single time, YX27 solution (1.6 mg) was measured and mixed with cholesterol, DOPE and DMG-PEG2000 according to a molar ratio of 50:38.5:10:1.5, and the total volume of the solution was allowed to reach 450 μl by supplementing ethanol. 150 μg of firefly luciferase mRNAs were taken and added to a sodium acetate buffer (50 mM, pH=5.2), and the total volume of the solution was 1350 μl. The ionizable lipid compound solution and the mRNA solution were mixed by introducing into a microfluidic machine (speed: 0.2 mL/min of ethanol solution, and 0.6 mL/min of sodium acetate buffer solution) to prepare lipid nanoparticles encapsulating mRNAs, which were dialyzed against PBS buffer for 2 hours, and the obtained samples were directly used for animal experiments. The ratio of the ionizable lipid compound YX27 to mRNAs was calculated according to the molar ratio (N/P) of the nitrogen atoms in YX27 to the phosphorus atoms in the phosphate skeleton of the mRNAs. In this example, N/P was 7.5.
In order to verify the delivery effect of the above Fluc mRNA/LNP preparation, YX27 LNPs encapsulating 150 μg/kg Fluc mRNAs were injected into 6-8 week-old female Balb/c mice by administration via tail vein, or YX27 LNPs encapsulating 250 μg/kg Fluc mRNAs were injected into the hind legs of mice by intramuscular administration; after 6 hours, 200 μl of D-Lucifin (with a mass fraction of 30%) was injected by intraperitoneal administration, and the expression and intensity of luciferase in the whole body, liver and muscle administration sites were detected by PerkinElmer IVIS Lumina III small animal in vivo optical imaging system. In order to study the effect of the hydrophobic chain length of lipid compounds on mRNA delivery efficiency, LNP samples encapsulating Fluc mRNAs were prepared using lipid compounds YX9, YX8, YX17 and YX31 respectively according to YX27 experimental operation, and the efficiency of luciferase expression in mice was studied.
In order to study the effect of the mixing ratio (N/P ratio) of ionizable lipids and mRNAs as the LNP components on the mRNA delivery efficiency, mixed samples of YX27 and luciferase mRNAs at N/P ratios of 7.5 and 9 were prepared according to the operation steps of Example 2, the mRNA delivery and the expression and intensity of luciferase in the whole body, liver and other sites were studied by administration via tail vein (the delivery results are shown in FIG. 3 and the table below).
LNPs containing SM102 or MC3 as the cationic lipid and luciferase mRNAs at an N/P ratio of 7.5 were prepared according to the operation steps of Example 2, in which the dose of Fluc mRNAs was 25 μg/kg, 50 μg/kg or 150 μg/kg respectively; and then the mRNA delivery by the prepared LNPs and the expression and intensity of luciferase in the whole body, liver and other sites were studied by administration via tail vein. The delivery results are shown in FIG. 4A, FIG. 4B and the table below.
In order to verify the expression efficiency of luciferase after administration of Fluc mRNA/LNPs as a function of time, YX27 solution encapsulating 150 μg/kg of Fluc mRNAs was injected into 6-8 week-old female Balb/c mice by administration via tail vein; 2 h, 4 h, 6 h, 18 h and 24 h after administration respectively, 200 μl of D-Lucifin (with a mass fraction of 30%) was injected by intraperitoneal administration, and the expression and intensity of luciferase in the whole body and liver site were detected by PerkinElmer IVIS Lumina III small animal in vivo optical imaging system. […]

As for `CCCCC/C=C\C/C=C\CCCCCCCCC(CCCCCCCC/C=C\C/C=C\CCCCC)OC(=O)CCCN(C)C` [MC3, D-Lin-MC3-DMA], the “Average intensity (comparison with SM102 and MC3)” value reads like this: (Fluc mRNA dose 25 μg/kg) 4.28E+08 p/s; (Fluc mRNA dose 50 μg/kg) 8.40E+08 p/s; (Fluc mRNA dose 150 μg/kg) 7.16E+09 p/s.

For the compound `CCCCCCCCCCCOC(=O)CCCCCN(CCO)CCCCCCCC(=O)OC(CCCCCCCC)CCCCCCCC` [SM102], where the note is “Fluc mRNA 50 μg/kg, N/P 7.5, liver tissue”, the “Average intensity 50 μg/kg (lipids with different structures)” value came out at 2.02E+09 p/s. The “Average intensity 150 μg/kg (lipids with different structures)” value (Fluc mRNA 150 μg/kg, N/P 7.5, liver tissue) was determined as 5.65E+09 p/s. Further, the “Average intensity (comparison with SM102 and MC3)” value (Fluc mRNA dose 25 μg/kg) is given as 1.20E+09 p/s; the “Average intensity (comparison with SM102 and MC3)” value (Fluc mRNA dose 50 μg/kg) came to 2.02E+09 p/s; the “Average intensity (comparison with SM102 and MC3)” value (Fluc mRNA dose 150 μg/kg) is on record as 5.65E+09 p/s.

These data come from patent US12668572B2, “Degradable lipid for active molecule delivery and lipid nanoparticle thereof” (BEIJING CARRIUS BIO LTD., priority 2023, dated 2026).
